Experimental data published in the Bradley open melting point set (2014).
Values joined by “and” are separate entries in the source; they are usually repeats but may differ in a detail not shown here. Equal values may be shown once.

| SMILES | melting point |
| --- | --- |
| NC(=O)c1ccc(Br)cc1 [4-bromobenzamide] | 192 °C |
| Oc1ccc(Cl)cc1-c1cc[nH]n1 [4-chloro-2-(1h-pyrazol-3-yl)phenol] | 157 °C |
| Cc1cc(O)c(C(C)C)cc1Cl [4-chloro-2-isopropyl-5-methylphenol] | 60 °C |
| COc1cc(Cl)ccc1C(=O)O [4-chloro-2-methoxybenzoic acid] | 147 °C |
| Cc1cc(Cl)ccc1B(O)O [4-chloro-2-methylbenzeneboronic acid] | 194 °C |
| Cc1cc(Cl)ccc1O [4-chloro-2-methylphenol] | 47 °C |
| Nc1ccc(Cl)cc1[N+](=O)[O-] [4-chloro-2-nitroaniline] [listing 1 of 2 here] | 118 °C |
| Nc1ccc(Cl)cc1[N+](=O)[O-] [4-chloro-2-nitroaniline] [listing 2 of 2 here] | 116 °C |
| Cc1cc(O)ccc1Cl [4-chloro-3-methylphenol] | 67 °C |
| Nc1ccc(Cl)c([N+](=O)[O-])c1 [4-chloro-3-nitroaniline] | 103 °C |
| O=C(O)c1ccc(Cl)c([N+](=O)[O-])c1 [4-chloro-3-nitrobenzoic acid] | 183 °C |
| Nc1ccc(Cl)cc1 [4-chloroaniline] | 70 °C |
| NC(=O)c1ccc(Cl)cc1 [4-chlorobenzamide] | 178 °C |
| OB(O)c1ccc(Cl)cc1 [4-chlorobenzeneboronic acid] | 273 °C |
| NS(=O)(=O)c1ccc(Cl)cc1 [4-chlorobenzenesulfonamide] | 146 °C |
| O=C(Cl)CCCCl [4-chlorobutyryl chloride] | -49 °C |
| O=C(O)Cc1ccc(Cl)cc1 [4-chlorophenylacetic acid] | 106 °C |
| Cc1ccc(Cl)cc1 [4-chlorotoluene] | 8 °C |
| CC(C)CCC[C@@H](C)[C@H]1CC[C@H]2[C@@H]3CCC4=CC(=O)CC[C@]4(C)[C@H]3CC[C@]12C [4-cholesten-3-one] | 80 °C |
| CC(C)(c1ccccc1)c1ccc(O)cc1 [4-cumylphenol] | 72 °C |
| N#Cc1ccncc1I [4-cyano-3-iodopyridine] | 121 °C |
| N#Cc1ccc(C=O)cc1 [4-cyanobenzaldehyde] | 102 °C |
| CCN(CC)c1ccc(C=O)cc1 [4-diethylaminobenzaldehyde] | 40 °C |
| Cc1ccc(/N=N/c2ccc(N(C)C)cc2)cc1 [4-dimethylamino-4'-methylazobenzene] | 166 °C |

| SMILES | melting point |
| --- | --- |
| CN(C)c1ccc(/N=N/c2ccc(N=C=S)cc2)cc1 [4-dimethylaminoazobenzene-4'-isothiocyanate] | 170 °C |
| CN(C)c1ccc(C=O)cc1 [4-dimethylaminobenzaldehyde] | 74 °C |
| CCOc1ccc(NC(C)=O)cc1 [4-ethoxyacetanilide] | 135 °C |
| CCc1ccc(N)cc1 [4-ethylaniline] | -5 °C |
| OB(O)c1ccc(F)cc1C(F)(F)F [4-fluoro-2-(trifluoromethyl)benzeneboronic acid] | 185 °C |
| COc1cc(F)ccc1C(=O)O [4-fluoro-2-methoxybenzoic acid] | 135 °C |
| Cc1cc(O)ccc1F [4-fluoro-3-methylphenol] | 30 °C |
| O=C(O)COc1ccc(F)cc1 [4-fluorophenoxyacetic acid] | 105 °C |
| O=Cc1ccc(B(O)O)cc1 [4-formylbenzeneboronic acid] | 263 °C |
| O=Cc1ccc(O)c([N+](=O)[O-])c1 [4-hydroxy-3-nitrobenzaldehyde] | 142 °C |
| O=C(O)c1ccc(O)c([N+](=O)[O-])c1 [4-hydroxy-3-nitrobenzoic acid] | 183 °C |
| CC(=O)CC(C)(C)O [4-hydroxy-4-methyl-2-pentanone] | -47 °C |
| Cc1cccc2c(O)cc(C(F)(F)F)nc12 [4-hydroxy-8-methyl-2-(trifluoromethyl)quinoline] | 128 °C |
| NC(=O)c1ccc(O)cc1 [4-hydroxybenzamide] | 161 °C |
| O=C(O)c1ccc(O)cc1 [4-hydroxybenzoic acid] | 214 °C and 215 °C |
| N#Cc1ccc(O)cc1 [4-hydroxybenzonitrile] | 112 °C |
| OCc1ccc(O)cc1 [4-hydroxybenzyl_alcohol] | 112 °C |
| Oc1ccc(Nc2ccccc2)cc1 [4-hydroxydiphenylamine] | 69 °C |
| Oc1ccnc2ccccc12 [4-hydroxyquinoline] | 203 °C |
| O=C(O)c1ccc(I)cc1 [4-iodobenzoic acid] | 270 °C |
| OCc1ccc(I)cc1 [4-iodobenzyl alcohol] | 73 °C |
| S=C=Nc1ccc(I)cc1 [4-iodophenyl isothiocyanate] | 76 °C |
| N#CCc1ccc(I)cc1 [4-iodophenylacetonitrile] | 53 °C |
| CC(C)c1ccc(B(O)O)cc1 [4-isopropylbenzeneboronic acid] | 143 °C |

| SMILES | melting point |
| --- | --- |
| CC(C)c1ccc(C(=O)O)cc1 [4-isopropylbenzoic acid] | 119 °C |
| CC(C)c1ccc(O)cc1 [4-isopropylphenol] | 60 °C and 61 °C |
| COc1ccc(B(O)O)c(C(F)(F)F)c1 [4-methoxy-2-(trifluoromethyl)benzeneboronic acid] | 170 °C |
| COc1ccc(N=C=S)c([N+](=O)[O-])c1 [4-methoxy-2-nitrophenyl isothiocyanate] | 92 °C |
| COc1ccc(B(O)O)cc1C [4-methoxy-3-methylbenzeneboronic acid] | 215 °C |
| COc1ccc(C(=O)O)cc1 [4-methoxybenzoic acid] | 184 °C |
| COc1ccc(C(=O)OC(=O)c2ccc(OC)cc2)cc1 [4-methoxybenzoic anhydride] | 97 °C |
| COc1ccc(C#N)cc1 [4-methoxybenzonitrile] | 59 °C |
| COc1ccc(C(=O)c2ccccc2)cc1 [4-methoxybenzophenone] | 62 °C |
| COc1ccc(C(=O)CC#N)cc1 [4-methoxybenzoylacetonitrile] | 128 °C |
| COc1cc(=O)oc2ccccc12 [4-methoxycoumarin] | 124 °C |
| COc1ccc(C(O)C(=O)O)cc1 (stereo unspecified) [4-methoxymandelic acid] | 107 °C |
| COc1ccc(CC(=O)O)cc1 [4-methoxyphenylacetic acid] | 87 °C |
| Cc1nc(-c2ccccn2)sc1C(=O)O [4-methyl-2-(2-pyridyl)thiazole-5-carboxylic acid] | 226 °C |
| Cc1nc(-c2cccnc2)sc1C(=O)O [4-methyl-2-(3-pyridyl)thiazole-5-carboxylic acid] | 246 °C |
| CC(=O)CC(C)C [4-methyl-2-pentanone] | -84 °C |
| Cc1ccc(N)cc1[N+](=O)[O-] [4-methyl-3-nitroaniline] | 77 °C |
| C/C=C\C(C)C [4-methyl-cis-2-pentene] | -134 °C |
| C/C=C/C(C)C [4-methyl-trans-2-pentene] | -141 °C |
| COc1ccc(C)cc1 [4-methylanisole] | -50 °C |
| Cc1ccc(C(=O)O)cc1 [4-methylbenzoic acid] | 180 °C and 181 °C |
| Cc1cc[n+]([O-])cc1C(=O)NN [4-methylpyridine-3-carbohydrazide 1-oxide] | 226 °C |
| Cc1cc(=O)oc2cc(O)ccc12 [4-methylumbelliferone] | 189 °C |
